What is called IC50 is the concentration that inhibits the measured activity by half.

We go through 17 compounds from patent US8476298B2 (Exelixis, Inc., priority 2003, dated 2013).

For one assay, the target named is c-Kit kinase (Homo sapiens, UniProt P10721). Put plainly: c-Kit AlphaScreen kinase assay.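 Further: c-Kit kinase phosphorylating biotinylated poly(Glu,Tyr), ATP near its KM, 1 h reaction at ambient temperature, AlphaScreen chemiluminescence with streptavidin donor and anti-phosphotyrosine acceptor beads, 10-point inhibitor titration.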 Format: biochemical. Conditions: Table 4, inhibition as IC50 class.
c-Kit kinase, sequence (P10721 26-976): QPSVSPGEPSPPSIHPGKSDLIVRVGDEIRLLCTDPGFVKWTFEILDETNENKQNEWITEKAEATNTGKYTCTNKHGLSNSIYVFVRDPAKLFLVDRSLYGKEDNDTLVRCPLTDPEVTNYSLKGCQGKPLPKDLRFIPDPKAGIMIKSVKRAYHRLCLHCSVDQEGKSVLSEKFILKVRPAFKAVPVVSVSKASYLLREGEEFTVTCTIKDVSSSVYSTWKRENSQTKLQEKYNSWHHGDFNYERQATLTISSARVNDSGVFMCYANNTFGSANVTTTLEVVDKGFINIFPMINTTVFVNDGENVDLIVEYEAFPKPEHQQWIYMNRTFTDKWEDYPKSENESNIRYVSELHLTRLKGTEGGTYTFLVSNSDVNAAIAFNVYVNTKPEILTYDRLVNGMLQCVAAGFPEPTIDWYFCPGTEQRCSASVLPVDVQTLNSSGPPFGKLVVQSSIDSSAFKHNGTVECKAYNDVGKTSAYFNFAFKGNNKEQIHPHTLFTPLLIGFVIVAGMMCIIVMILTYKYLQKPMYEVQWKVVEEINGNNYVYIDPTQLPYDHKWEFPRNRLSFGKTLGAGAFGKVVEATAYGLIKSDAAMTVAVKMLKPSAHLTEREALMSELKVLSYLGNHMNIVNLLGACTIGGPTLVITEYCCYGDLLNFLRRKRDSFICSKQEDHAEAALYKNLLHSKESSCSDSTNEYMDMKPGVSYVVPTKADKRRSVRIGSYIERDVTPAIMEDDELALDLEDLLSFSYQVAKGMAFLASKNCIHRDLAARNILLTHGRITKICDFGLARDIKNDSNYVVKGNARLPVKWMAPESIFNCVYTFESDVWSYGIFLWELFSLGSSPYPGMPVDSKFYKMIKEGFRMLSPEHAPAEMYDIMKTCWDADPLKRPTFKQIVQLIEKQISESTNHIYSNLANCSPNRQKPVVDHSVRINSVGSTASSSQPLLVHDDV
Assay [1] deals with T1, KDR (baculovirus expressed human KDR kinase domain D807-V1356) (Homo sapiens, UniProt P35968).
T1 construct: human KDR kinase domain D807-V1356; host or cells: baculovirus expression
T1 sequence (P35968 807-1356): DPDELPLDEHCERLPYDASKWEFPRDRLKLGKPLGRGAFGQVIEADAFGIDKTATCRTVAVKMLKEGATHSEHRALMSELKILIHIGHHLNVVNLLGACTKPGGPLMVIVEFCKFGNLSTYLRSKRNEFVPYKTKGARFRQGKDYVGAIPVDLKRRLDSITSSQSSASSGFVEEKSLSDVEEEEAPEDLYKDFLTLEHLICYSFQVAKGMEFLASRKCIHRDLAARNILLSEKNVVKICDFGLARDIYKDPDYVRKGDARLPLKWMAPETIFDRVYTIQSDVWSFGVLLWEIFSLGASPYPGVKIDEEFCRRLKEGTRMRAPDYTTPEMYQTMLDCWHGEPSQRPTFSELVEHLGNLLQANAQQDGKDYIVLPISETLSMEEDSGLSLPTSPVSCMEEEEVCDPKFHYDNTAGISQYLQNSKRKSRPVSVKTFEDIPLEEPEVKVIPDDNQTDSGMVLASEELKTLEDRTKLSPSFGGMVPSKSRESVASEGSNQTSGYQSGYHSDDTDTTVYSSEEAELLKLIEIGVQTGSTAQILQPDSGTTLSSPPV
Put plainly: biochemical. Conditions: Table 4, inhibition as IC50 class.

Assay [2] deals with T2, Flt-4 (baculovirus expressed human Flt-4 kinase domain D725-R1298) (Homo sapiens, UniProt P35916).
T2 construct: human Flt-4 kinase domain D725-R1298; host or cells: baculovirus expression
T2 sequence (P35916 725-1298 isoform P35916-1): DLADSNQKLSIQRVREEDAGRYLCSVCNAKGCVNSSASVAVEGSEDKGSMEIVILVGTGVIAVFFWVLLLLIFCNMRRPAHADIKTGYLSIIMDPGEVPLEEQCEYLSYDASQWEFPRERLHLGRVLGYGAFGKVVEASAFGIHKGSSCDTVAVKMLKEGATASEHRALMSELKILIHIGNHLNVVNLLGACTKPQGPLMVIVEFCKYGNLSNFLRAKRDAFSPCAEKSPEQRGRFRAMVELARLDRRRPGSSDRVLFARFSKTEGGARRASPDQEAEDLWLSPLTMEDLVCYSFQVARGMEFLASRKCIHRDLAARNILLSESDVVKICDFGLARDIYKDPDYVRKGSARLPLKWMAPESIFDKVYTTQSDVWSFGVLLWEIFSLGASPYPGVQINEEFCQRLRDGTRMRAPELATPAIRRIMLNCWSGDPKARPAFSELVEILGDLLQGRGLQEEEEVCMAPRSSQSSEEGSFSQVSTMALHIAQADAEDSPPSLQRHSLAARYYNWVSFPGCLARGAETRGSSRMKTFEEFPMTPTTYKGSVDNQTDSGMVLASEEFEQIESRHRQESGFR
Put plainly: flt-4 Alphascreen Tyrosine Kinase assay.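 Further: AlphaScreen chemiluminescence read-out of biotinylated poly(Glu,Tyr) 4:1 phosphorylation via streptavidin donor and PY100 anti-phosphotyrosine acceptor beads, ATP near KM, 1 hr kinase reaction, 10-point dose-response.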 Conditions: Table 4, inhibition as IC50 class; read-out: flt4 IC50. It counts as biochemical.
Experimental: Kinase activity and compound inhibition are investigated using one or more of the three assay formats described below. The ATP concentrations for each assay are selected to be close to the Michaelis-Menten constant (KM) for each individual kinase. Dose-response experiments are performed at 10 different inhibitor concentrations in a 384-well plate format. […] Typically H is close to unity. c-Met Assay
Biochemical activity for flt-4 was assessed using an Alphascreen Tyrosine Kinase protocol. AlphaScreen™ (Perkin Elmer) technology is a proximity assay employing microparticles. Singlet oxygen derived from a donor bead following laser excitation results in chemiluminescence when in proximity (100 Å) to an acceptor bead due to biomolecular interactions. For the Flt-4 assay, donor beads coated with streptavidin and acceptor beads coated with PY100 anti-phosphotyrosine antibody were used (Perkin Elmer). Biotinylated poly(Glu,Tyr) 4:1 (Perkin Elmer) was used as the substrate. Substrate phosphorylation was measured by addition of donor/acceptor beads by chemiluminescence following donor-acceptor bead complex formation. […] Reaction mixtures were incubated for 1 hr at ambient temperature. […] After 2-16 hr incubation at ambient temperature plates were read using an AlphaQuest reader (Perkin Elmer).

Assay [3] has as its target T3, c-Met (baculovirus expressed human c-Met kinase domain P948-S1343) (Homo sapiens, UniProt P08581).
T3 construct: human c-Met kinase domain P948-S1343; host or cells: baculovirus expression
Put plainly: c-Met Luciferase-Coupled Chemiluminescent Kinase assay (LCCA).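 Further: kinase activity read as percent ATP left after reaction, by luciferase-luciferin chemiluminescence, with 1 µM ATP and 1 µM poly-EY substrate, 2 h at ambient temperature, 10-point dose-response.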 Format: biochemical. Particulars: Table 4, inhibition as IC50 class.

The target in assay [4] is T4, Flt-3 (baculovirus expressed human Flt-3 kinase domain R571-S993) (Homo sapiens, UniProt P36888).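 Further: Luciferase-coupled chemiluminescent kinase assay, activity read as percent ATP left after a 3 h reaction at room temperature, ATP near KM, 10-point dose-response.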
T4 construct: human Flt-3 kinase domain R571-S993; host or cells: baculovirus expression
T4 sequence (P36888 571-993): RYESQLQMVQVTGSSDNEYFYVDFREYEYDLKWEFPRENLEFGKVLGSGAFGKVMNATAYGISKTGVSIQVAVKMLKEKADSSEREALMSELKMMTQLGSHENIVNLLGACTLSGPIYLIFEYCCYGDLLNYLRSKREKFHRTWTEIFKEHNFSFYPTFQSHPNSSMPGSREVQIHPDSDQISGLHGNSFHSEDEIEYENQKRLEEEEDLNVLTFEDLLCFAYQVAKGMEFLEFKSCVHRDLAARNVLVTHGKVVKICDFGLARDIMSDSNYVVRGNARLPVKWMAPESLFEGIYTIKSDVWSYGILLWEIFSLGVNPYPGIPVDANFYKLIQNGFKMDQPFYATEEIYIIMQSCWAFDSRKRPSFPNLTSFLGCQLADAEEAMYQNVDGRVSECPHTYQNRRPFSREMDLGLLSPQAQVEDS
Put plainly: biochemical. Particulars: Table 4, inhibition as IC50 class; read-out: flt3 IC50.

T3 sequence (P08581 1011-1343 limits assumed): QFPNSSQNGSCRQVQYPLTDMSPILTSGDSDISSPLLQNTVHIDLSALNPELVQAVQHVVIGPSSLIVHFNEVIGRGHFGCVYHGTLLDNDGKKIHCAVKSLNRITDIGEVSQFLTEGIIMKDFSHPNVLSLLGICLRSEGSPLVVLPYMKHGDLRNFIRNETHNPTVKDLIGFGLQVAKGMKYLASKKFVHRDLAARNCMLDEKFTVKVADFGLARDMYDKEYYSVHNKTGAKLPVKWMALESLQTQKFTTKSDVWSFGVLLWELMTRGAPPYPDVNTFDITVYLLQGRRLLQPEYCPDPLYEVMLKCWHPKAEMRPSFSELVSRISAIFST

On to `COc1cc2c(Oc3ccc(NC(=O)C(=O)NCC(C)c4ccccc4)cc3F)ccnc2cc1OCC1CCNCC1` (stereo not shown) [Example 229, N-[3-fluoro-4-({6-(methyloxy)-7-[(piperidin-4-ylmethyl)oxy]quinolin-4-yl}oxy)phenyl]-N′-(2-phenylpropyl)ethanediamide], for which the IC50 (against c-Kit kinase; in assay [1]; in assay [2]; in assay [3]; in assay [4]) was below 50 nM in each case.
For `COc1cc2c(Oc3ccc(NC(=O)C(=O)NCCc4ccc(Br)cc4)cc3F)ccnc2cc1OCC1CCNCC1` [Example 230, N-[2-(4-bromophenyl)ethyl]-N′-[3-fluoro-4-({6-(methyloxy)-7-[(piperidin-4-ylmethyl)oxy]quinolin-4-yl}oxy)phenyl]ethanediamide], the IC50 against c-Kit kinase was 50 to 500 nM; in assay [1], below 50 nM; in assay [2], 50 to 500 nM; in assay [3], below 50 nM; in assay [4], 50 to 500 nM.
Turning to `CCN1CCC(COc2cc3nccc(Oc4ccc(NC(=O)C(=O)N5CCOC(c6ccccc6)C5)cc4F)c3cc2OC)CC1` (stereo not shown) [Example 231, N-(4-{[7-{[(1-ethylpiperidin-4-yl)methyl]oxy}-6-(methyloxy)quinolin-4-yl]oxy}-3-fluorophenyl)-2-oxo-2-(2-phenylmorpholin-4-yl)acetamide], the IC50 at c-Kit kinase is 50 to 500 nM; in assay [1] it was 50 to 500 nM; in assay [2] it was 50 to 500 nM; in assay [3] it was below 50 nM; in assay [4] it was 50 to 500 nM.
As to `COc1cc2c(Oc3ccc(NC(=O)C(=O)NCc4cc(F)cc(C(F)(F)F)c4)cc3F)ccnc2cc1OCC1CCNCC1` [Example 232, N-[3-fluoro-4-({6-(methyloxy)-7-[(piperidin-4-ylmethyl)oxy]quinolin-4-yl}oxy)phenyl]-N′-{[3-fluoro-5-(trifluoromethyl)phenyl]methyl}ethanediamide], the IC50 at c-Kit kinase was 50 to 500 nM; in assay [1] it was below 50 nM; in assay [2] it was 50 to 500 nM; in assay [3], below 50 nM; in assay [4], below 50 nM.
Turning to `COc1cc2c(Oc3ccc(NC(=O)C(=O)NCc4cc(F)cc(F)c4)cc3F)ccnc2cc1OCC1CCNCC1` [Example 233, N-[(3,5-difluorophenyl)methyl]-N′-[3-fluoro-4-({6-(methyloxy)-7-[(piperidin-4-ylmethyl)oxy]quinolin-4-yl}oxy)phenyl]ethanediamide], the IC50 against c-Kit kinase was below 50 nM; in assay [1] it was below 50 nM; in assay [2] it was below 50 nM; in assay [3], below 50 nM; in assay [4] it was 50 to 500 nM.
`COc1cc2c(Oc3ccc(NC(=O)C(=O)NCc4cc(C(F)(F)F)ccc4Cl)cc3F)ccnc2cc1OCC1CCNCC1` [Example 234, N-{[2-chloro-5-(trifluoromethyl)phenyl]methyl}-N′-[3-fluoro-4-({6-(methyloxy)-7-[(piperidin-4-ylmethyl)oxy]quinolin-4-yl}oxy)phenyl]ethanediamide]: the IC50 at c-Kit kinase was 50 to 500 nM; in assay [1] it was below 50 nM; in assay [2], 50 to 500 nM; in assay [3], below 50 nM; in assay [4] it was below 50 nM.
`COc1cc2c(Oc3ccc(NC(=O)C(=O)NCc4cccc(C(F)(F)F)c4)cc3F)ccnc2cc1OCC1CCNCC1` [Example 239, N-[3-fluoro-4-({6-(methyloxy)-7-[(piperidin-4-ylmethyl)oxy]quinolin-4-yl}oxy)phenyl]-N′-{[3-(trifluoromethyl)phenyl]methyl}ethanediamide]: the IC50 is below 50 nM against c-Kit kinase; below 50 nM in assay [1]; 50 to 500 nM in assay [2]; below 50 nM in assay [3]; below 50 nM in assay [4].
For the compound `COc1cc2c(Oc3ccc(NC(=O)C(=O)NCc4cccc(OC(F)(F)F)c4)cc3F)ccnc2cc1OCC1CCNCC1` [Example 240, N-[3-fluoro-4-({6-(methyloxy)-7-[(piperidin-4-ylmethyl)oxy]quinolin-4-yl}oxy)phenyl]-N′-({3-[(trifluoromethyl)oxy]phenyl}methyl)ethanediamide], the IC50 (on c-Kit kinase; in assay [1]; in assay [2]; in assay [3]; in assay [4]) was below 50 nM throughout.
Consider `COc1ccccc1CNC(=O)C(=O)Nc1ccc(Oc2ccnc3cc(OCC4CCNCC4)c(OC)cc23)c(F)c1` [Example 241, N-[3-fluoro-4-({6-(methyloxy)-7-[(piperidin-4-ylmethyl)oxy]quinolin-4-yl}oxy)phenyl]-N′-{[2-(methyloxy)phenyl]methyl}ethanediamide], for which the IC50 (at c-Kit kinase; in assay [1]; in assay [2]; in assay [3]; in assay [4]) was below 50 nM throughout.
On to `COc1cc2c(Oc3ccc(NC(=O)C(=O)NCc4cccc(Cl)c4)cc3F)ccnc2cc1OCC1CCNCC1` [Example 243, N-[(3-chlorophenyl)methyl]-N′-[3-fluoro-4-({6-(methyloxy)-7-[(piperidin-4-ylmethyl)oxy]quinolin-4-yl}oxy)phenyl]ethanediamide], for which the IC50 was below 50 nM against c-Kit kinase; below 50 nM in assay [1]; 50 to 500 nM in assay [2]; below 50 nM in assay [3]; 50 to 500 nM in assay [4].
Take `COc1cc2c(Oc3ccc(NC(=O)C(=O)NCc4ccccc4OC(F)(F)F)cc3F)ccnc2cc1OCC1CCNCC1` [Example 244, N-[3-fluoro-4-({6-(methyloxy)-7-[(piperidin-4-ylmethyl)oxy]quinolin-4-yl}oxy)phenyl]-N′-({2-[(trifluoromethyl)oxy]phenyl}methyl)ethanediamide]: the IC50 (on c-Kit kinase; in assay [1]; in assay [2]; in assay [3]; in assay [4]) was below 50 nM in each case.
Consider `COc1cc2c(Oc3ccc(NC(=O)C(=O)NCc4ccccc4Cl)cc3F)ccnc2cc1OCC1CCNCC1` [Example 245, N-[(2-chlorophenyl)methyl]-N′-[3-fluoro-4-({6-(methyloxy)-7-[(piperidin-4-ylmethyl)oxy]quinolin-4-yl}oxy)phenyl]ethanediamide], for which the IC50 (against c-Kit kinase; in assay [1]; in assay [2]; in assay [3]; in assay [4]) was below 50 nM in each case.
In the case of `COc1cc2c(Oc3ccc(NC(=O)C(=O)NCc4ccc(OC(F)(F)F)cc4)cc3F)ccnc2cc1OCC1CCNCC1` [Example 246, N-[3-fluoro-4-({6-(methyloxy)-7-[(piperidin-4-ylmethyl)oxy]quinolin-4-yl}oxy)phenyl]-N′-({4-[(trifluoromethyl)oxy]phenyl}methyl)ethanediamide], the IC50 is 50 to 500 nM against c-Kit kinase; 50 to 500 nM in assay [1]; 50 to 500 nM in assay [2]; below 50 nM in assay [3]; 50 to 500 nM in assay [4].
As for `COc1cc2c(Oc3ccc(NC(=O)C(=O)NCCc4ccccc4)cc3F)ccnc2cc1OCC1CN(C)C1` [Example 250, N-(3-fluoro-4-{[7-{[(1-methylazetidin-3-yl)methyl]oxy}-6-(methyloxy)quinolin-4-yl]oxy}phenyl)-N′-(2-phenylethyl)ethanediamide], the IC50 (against c-Kit kinase; in assay [1]; in assay [2]; in assay [3]; in assay [4]) was below 50 nM throughout.
`CC[C@@H](NC(=O)C(=O)Nc1ccc(Oc2ccnc3cc(OCC4CCNCC4)c(OC)cc23)c(F)c1)c1ccccc1` [Example 254, N-[3-fluoro-4-({6-(methyloxy)-7-[(piperidin-4-ylmethyl)oxy]quinolin-4-yl}oxy)phenyl]-N′-[(1R)-1-phenylpropyl]ethanediamide]: the IC50 against c-Kit kinase is 50 to 500 nM; in assay [1], 50 to 500 nM; in assay [2] it was 50 to 500 nM; in assay [3], below 50 nM; in assay [4], 50 to 500 nM.
Regarding `COc1cc2c(Oc3ccc(NC(=O)C(=O)NCc4ccc(F)c(F)c4)cc3F)ccnc2cc1OCC1CCNCC1` [Example 256, N-[(3,4-difluorophenyl)methyl]-N′-[3-fluoro-4-({6-(methyloxy)-7-[(piperidin-4-ylmethyl)oxy]quinolin-4-yl}oxy)phenyl]ethanediamide], the 50% inhibitory concentration (IC50) is below 50 nM at c-Kit kinase; below 50 nM in assay [1]; below 50 nM in assay [2]; below 50 nM in assay [3]; 50 to 500 nM in assay [4].
For the compound `COc1cc2c(Oc3ccc(NC(=O)C(=O)NCc4c(F)cccc4F)cc3F)ccnc2cc1OCC1CCNCC1` [Example 257, N-[(2,6-difluorophenyl)methyl]-N′-[3-fluoro-4-({6-(methyloxy)-7-[(piperidin-4-ylmethyl)oxy]quinolin-4-yl}oxy)phenyl]ethanediamide], the IC50 against c-Kit kinase was below 50 nM; in assay [1], below 50 nM; in assay [2], below 50 nM; in assay [3] it was below 50 nM; in assay [4], 50 to 500 nM.
